Key:
[1] = tested on: A549-ACE2 infected with SARS-CoV-2; assay: cell count relative to DMSO; higher = less toxic; details: 24 h
[2] = tested on: Caco-2; assay: cell viability relative to DMSO; higher = less toxic; details: 72 h
[3] = tested on: Calu-3; assay: as above; details: 72 h
[4] = tested on: HepG2; assay: as above; details: 72 h
[5] = tested on: U2OS; assay: as above; details: 72 h
[6] = tested on: Vero E6; assay: as above; details: 72 h
[7] = tested on: A549-ACE2 infected with SARS-CoV-2; assay: SARS-CoV-2 infection rate relative to DMSO; higher = more infection; details: 24 h
[8] = tested on: A549-ACE2; assay: phospholipidosis EC50; higher = less potent phospholipidosis inducer
[9] = tested on: A549-ACE2; assay: drug-induced phospholipidosis relative to tamoxifen; higher = more phospholipidosis
[10] = tested on: A549-ACE2 infected with SARS-CoV-2; assay: morphology score (similarity to uninfected cells); higher = more like uninfected cells; details: 24 h
[11] = tested on: Caco-2; assay: relative viability EC50 (midpoint between 100% and the lowest measured viability); higher = less toxic; details: 72 h
[12] = tested on: Calu-3; assay: as above; details: 72 h
[13] = tested on: HepG2; assay: as above; details: 72 h
[14] = tested on: Caco-2; assay: drug sensitivity score (DSS) for viability; higher = more toxic; extreme values may be limits of the assay; details: 72 h
[15] = tested on: Calu-3; assay: as above; details: 72 h
[16] = tested on: HepG2; assay: as above; details: 72 h
[17] = tested on: U2OS; assay: as above; details: 72 h
[18] = tested on: Vero E6; assay: as above; details: 72 h

CN(C)CCOc1ccc(/C(=C(/CCCl)c2ccccc2)c2ccccc2)cc1 [toremifene]
Details | SARS-CoV-2 infection rate [%] | cell count [%] | cell viability [%] | morphology score | phospholipidosis EC50 [nM]
[1], 0.1 µM | – | 100 | – | – | –
[1], 0.3 µM | – | 107 | – | – | –
[1], 1 µM | – | 107 | – | – | –
[1], 3 µM | – | 127 | – | – | –
[2], 1 nM | – | – | 100 | – | –
[2], 10 nM | – | – | 98.1 | – | –
[2], 100 nM | – | – | 105 | – | –
[2], 1000 nM | – | – | 92.3 | – | –
[2], 10000 nM | – | – | 39.8 | – | –
[3], 1 nM | – | – | 90.6 | – | –
[3], 10 nM | – | – | 106 | – | –
[3], 100 nM | – | – | 104 | – | –
[3], 1000 nM | – | – | 93.1 | – | –
[3], 10000 nM | – | – | 15.8 | – | –
[4], 1 nM | – | – | 105 | – | –
[4], 10 nM | – | – | 82.5 | – | –
[4], 100 nM | – | – | 104 | – | –
[4], 1000 nM | – | – | 103 | – | –
[4], 10000 nM | – | – | 29.9 | – | –
[5], 1 nM | – | – | 97.6 | – | –
[5], 10 nM | – | – | 94.9 | – | –
[5], 100 nM | – | – | 99.4 | – | –
[5], 1000 nM | – | – | 91.3 | – | –
[5], 10000 nM | – | – | 66.7 | – | –
[6], 1 nM | – | – | 98.4 | – | –
[6], 10 nM | – | – | 101 | – | –
[6], 100 nM | – | – | 90.4 | – | –
[6], 1000 nM | – | – | 95.3 | – | –
[6], 10000 nM | – | – | 53.6 | – | –
[7], 0.1 µM | 105 | – | – | – | –
[7], 0.3 µM | 88 | – | – | – | –
[7], 1 µM | 89 | – | – | – | –
[7], 3 µM | 44 | – | – | – | –
[8], 24 h | – | – | – | – | 15000
[8], 48 h | – | – | – | – | 1480
[8], 72 h | – | – | – | – | 1650
[10], 0.1 µM | – | – | – | -0.1 | –
[10], 0.3 µM | – | – | – | 0.28 | –
[10], 1 µM | – | – | – | 0.36 | –
[10], 3 µM | – | – | – | 0.76 | –

drug-induced phospholipidosis [%], [9]
Details | 0.3 µM | 0.833333 µM | 3.33333 µM | 6.66667 µM | 10 µM | 30 µM
24 h | 8.6 | 44.5 | 103 | 115 | 116 | 416
48 h | 7.64 | 34.2 | 102 | 117 | 121 | –
72 h | 6.92 | 27.5 | 102 | 112 | 125 | –

Details | drug sensitivity score | relative viability EC50 [nM]
[11] | – | 2130
[12] | – | 2500
[13] | – | 3400
[14] | 4.6 | –
[15] | 5.7 | –
[16] | 3.6 | –
[17] | 2.8 | –
[18] | 3.2 | –
